Where “and” joins values, the source holds several entries; their conditions need not be identical. Equal values may be shown once.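 These data come from cells grown in 96-well plates and exposed to compound for 48 hours at five concentrations. At the GI50, growth is halved. TGI denotes the concentration required for complete inhibition of growth.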
Columns and labels:
Experiment in all cases: growth of human tumour cells (NCI), 48 h
COLO 205 colon = system: COLO 205 colon
CAKI-1 renal = system: CAKI-1 renal
SF-539 CNS = system: SF-539 CNS
SK-OV-3 ovarian = system: SK-OV-3 ovarian
HT29 colon = system: HT29 colon
HCT-116 colon = system: HCT-116 colon
SN12C renal = system: SN12C renal
SK-MEL-28 melanoma = system: SK-MEL-28 melanoma
NCI-H460 lung = system: NCI-H460 lung
PC-3 prostate = system: PC-3 prostate

SMILES | GI50 (COLO 205 colon) | TGI (COLO 205 colon) [µM] | GI50 (CAKI-1 renal) | TGI (CAKI-1 renal) | GI50 (SF-539 CNS) | TGI (SF-539 CNS) | GI50 (SK-OV-3 ovarian) | TGI (SK-OV-3 ovarian) | GI50 (HT29 colon) | TGI (HT29 colon) | GI50 (HCT-116 colon) | TGI (HCT-116 colon) | GI50 (SN12C renal) | TGI (SN12C renal) | GI50 (SK-MEL-28 melanoma) | TGI (SK-MEL-28 melanoma) | GI50 (NCI-H460 lung) | TGI (NCI-H460 lung) | GI50 (PC-3 prostate) | TGI (PC-3 prostate)
CC(N)(Cc1c[nH]c2ccccc12)C(=O)O (centres undefined) | > 2500 µM | > 2500 | > 2500 µM | > 2500 µM | > 2500 µM | > 2500 µM | > 2500 µM | > 2500 µM | > 2500 µM | > 2500 µM | > 2500 µM | > 2500 µM | > 2500 µM | > 2500 µM | > 2500 µM | > 2500 µM | > 2500 µM | > 2500 µM | > 2500 µM | > 2500 µM
O=c1c2[nH]c3ccccc3c2nc2n1CCS2 | > 100 µM | > 100 | 38.7 µM | > 100 µM | 85 µM | > 100 µM | > 100 µM | > 100 µM | > 100 µM | > 100 µM | > 100 µM | > 100 µM | > 100 µM | > 100 µM | > 100 µM | > 100 µM | > 100 µM | > 100 µM | 47.8 µM | > 100 µM
Cc1cc(S(N)(=O)=O)c(S/C(=N\Nc2ccc([N+](=O)[O-])cc2)c2ccc(O)cc2)cc1Cl | 4.21 µM | 17.6 | 2.3 µM | 5.22 µM | 3.39 µM | 8.74 µM | 4.32 µM | 18.4 µM | 3.29 µM | 7.35 µM | 2.89 µM | 10.6 µM | 2.38 µM | 5.29 µM | 2.62 µM | 5.73 µM | 2.94 µM | 10.1 µM | 3.26 µM | 8.55 µM
O=C(C[C@@]1(O)C(=O)Nc2c(Cl)ccc(Cl)c21)c1ccc(C2CC2)cc1 | 0.298 µM | 2.13 | 0.214 µM | 17.2 µM | 0.286 µM | 3.64 µM | 0.613 µM | 39.1 µM | 0.222 µM | 13.7 µM | 0.437 µM | 11.9 µM | 0.88 µM | 17.7 µM | 3.5 µM | 23.5 µM | 0.359 µM | 11.4 µM | 0.434 µM | 20 µM
[C-]#[O+].[C-]#[O+].[Ir].[O-]c1ccc2ccccc2c1N=Nc1ccccc1 |  | 3.7 |  | 22.7 µM |  | 50.4 µM |  | > 68 µM |  | 20.6 µM |  | 24.7 µM |  | 23.9 µM |  | 24.7 µM |  | > 70.6 µM |  | 54 µM
CC(C)[C@](O)(C(=O)OCC1=CC[N+]2([O-])CC[C@@H](O)[C@@H]12)[C@H](C)O (some centres undefined) |  | > 10000 |  | > 9520 µM |  | > 10000 µM |  | > 10000 µM |  | > 10000 µM |  | > 10000 µM |  | > 10000 µM |  | > 10000 µM |  | > 9540 µM |  | > 10000 µM
COc1cc(-c2nc3ccccc3[nH]2)ccc1OCC(=O)N=Nc1c(O)[nH]c2ccc(Cl)cc12 | 1.89 µM | 3.79 | 1.81 µM | 3.55 µM | 1.69 µM | 3.1 µM | 1.9 µM | 3.93 µM | 1.62 µM | 3.48 µM | 0.4 µM | 1.53 µM | 1.61 µM | 3.06 µM | 1.81 µM | 3.22 µM | 1.15 µM | 2.84 µM | 1.48 µM | 3.06 µM
Cc1cc(O)c(C2=NN(c3ccc(S(N)(=O)=O)cc3)C(c3ccccc3O)C2)cc1Cl (centres undefined) | 1.86 µM | 3.41 | 1.67 µM | 4.12 µM | 1.61 µM | 3.04 µM | 3.86 µM | 13.2 µM | 2.07 µM | 4.07 µM | 1.57 µM | 2.91 µM | 2.8 µM | 8.65 µM | 2.74 µM | 6.8 µM | 2.07 µM | 4.38 µM | 1.33 µM | 3.26 µM
COc1ccc(-c2ccc3ncc4c(c3c2)n(-c2ccc(N3CCNCC3)c(C(F)(F)F)c2)c(=O)n4C)cn1 | < 0.01 µM and 0.00994 µM |  | 0.0179 µM and 0.0119 µM | 0.884 µM and 0.118 µM | < 0.011 µM and 0.0132 µM | 0.0606 µM and 0.0587 µM | < 0.01 µM and 0.006 µM | 0.0183 µM and 0.0462 µM | < 0.01 µM and 0.00658 µM | 0.122 µM and 0.393 µM | < 0.0143 µM and 0.00853 µM | 0.165 µM and 0.142 µM | < 0.0112 µM and 0.00382 µM | 1.56 µM and 0.381 µM | < 0.01 µM and 0.00679 µM | 0.101 µM and 0.0648 µM | < 0.01 µM and 0.00389 µM | 0.223 µM and 0.141 µM | < 0.01 µM and 0.00281 µM | 0.799 µM and 1.12 µM
CN(C)c1ccc(/C=C/c2ccnc3ccc4ccccc4c23)cc1 |  | > 100 |  | > 100 µM |  | > 100 µM |  | > 100 µM |  | > 100 µM |  | > 100 µM |  | > 100 µM |  | > 100 µM |  | > 100 µM |  | > 100 µM
Cc1ccc(Nc2[nH]c(C(=O)c3ccc(Cl)cc3)c(N)c2C(=S)Nc2ccccc2)nc1 | 31.9 µM | > 100 | 25.3 µM | 76.4 µM | 19.9 µM | 44.8 µM | 52.3 µM | > 100 µM | 57.8 µM | > 100 µM | 42.8 µM | > 100 µM | 18.5 µM | 37.9 µM | 55.2 µM | > 100 µM | 23.9 µM | > 100 µM | 26.5 µM | > 100 µM
Cc1c2cnccc2c(C)c2c1c1cc(C(=O)O)ccc1n2C | 0.594 µM | 4.02 | 0.616 µM | 8.34 µM | 1.01 µM | 3.27 µM | 0.905 µM | 7.63 µM | 0.856 µM | 6.15 µM | 0.373 µM | > 100 µM | 0.772 µM | 10.2 µM | 1.36 µM | 3.71 µM | 0.874 µM | 8.46 µM | 1.68 µM | 8.09 µM
CCOC(=O)/C(=C/c1ccccc1)C(=O)c1ccccc1 | 2.43 µM | 5.04 | 3.04 µM | 10.4 µM | 2.63 µM | 7.8 µM | 14.4 µM | 27.9 µM | 2.78 µM | 5.8 µM | 2.04 µM | 4.39 µM | 3.21 µM | 12 µM | 2.42 µM | 6.59 µM | 3.27 µM | 10.9 µM | 4.6 µM | 22.7 µM

— PubChem BioAssay (NCI)
